Like-named read-outs stand apart in the source and are kept apart here.
Columns and labels:
Type in all cases: physicochemical
[1] = Test for hygroscopicity: water content (K.F. water %) at 25° C. at different humidity levels; conditions: for water content (K.F. water %): 25° C.
[2] = Test for light stability: aqueous solutions stored at 25° C. for 4 weeks exposed to sunlight (HPLC); conditions: 25° C. sunlight; for Content (HPLC): aqueous solution, stored for 4 weeks; for colour change: light stability test, 4 weeks
Experimental: The resulting aqueous solutions were stored at 25° C. for 4 weeks while being exposed to sunlight. A measurement was made of the contents of the salts with resort to HPLC under the same conditions as in the chemical stability test.

[3] = Test for solubility in various solvents; conditions: based on weight of amlodipine, note: dissolved at 37° C.
[4] = Chemical stability in solid state, accelerated test at 60° C. (HPLC content)
[5] = Chemical stability in aqueous state, stored at 25° C. for 4 weeks in complete darkness (HPLC); conditions: in distilled water
Experimental: The resulting aqueous solutions were stored at 25° C. for 4 weeks in complete darkness, after which a measurement was made of the contents of the salts with resort to HPLC under the same conditions as in the solid state.

For `CCOC(=O)C1=C(COCCN)NC(C)=C(C(=O)OC)C1c1ccccc1Cl` (centres unmarked) [Besylate, amlodipine besylate, reference compound], the “water content (K.F. water %)” value ([1]; 25% RH, 1 week) was 0.10%, the “water content (K.F. water %)” value ([1]; 60% RH, 1 week) was 0.09% and the “water content (K.F. water %)” value ([1]; 75% RH, 1 week) was 0.15%. For the same compound, the “water content (K.F. water %)” value ([1]; Initial) was 0.14%, the “Content (HPLC)” value [2] was 82.5% and the colour change ([2]; listed as amlodipine besylate) was “turned yellow from white”. It also gave a solubility ([3]; Dist. Water, 25° C. (text)) of 1290 µg/mL, a solubility ([3]; pH 2, ionic strength 0.2 buffer, 25° C. (text)) of 1290 µg/mL and a solubility ([3]; pH 4, ionic strength 0.2 buffer, 25° C. (text)) of 1320 µg/mL. It also gave a solubility ([3]; pH 6, ionic strength 0.2 buffer, 25° C.) of 1280 µg/mL, a solubility ([3]; pH 7, ionic strength 0.2 buffer, 25° C.) of 640 µg/mL and a solubility ([3]; pH 7.4, ionic strength 0.2 buffer, 25° C. (text)) of 1350 µg/mL. For the same compound, the solubility ([3]; pH 8, ionic strength 0.2 buffer, 25° C. (text)) was 1250 µg/mL, the HPLC content ([4]; 1 week) was 99.6% and the HPLC content ([4]; 2 weeks) was 99.4%. For the same compound, the HPLC content ([4]; 4 weeks) was 99.2% and the HPLC content ([4]; initial) was 99.6%.

With `CCOC(=O)C1=C(COCCN)NC(C)=C(C(=O)OC)C1c1ccccc1Cl.Cc1ccc(S(=O)(=O)O)cc1` (centres unmarked) [Tosylate, Amlodipine Para-toluenesulfonate] the “Content (HPLC)” value [2] was 72.0%.

In the case of `CCOC(=O)C1=C(COCCN)NC(C)=C(C(=O)OC)C1c1ccccc1Cl.O=C(O)Cc1ccc(O)cc1` (centres unmarked) [amlodipine p-hydroxyphenylacetate], the “water content (K.F. water %)” value ([1]; 25% RH, 1 week, listed as p-hydroxyphenylacetate) is reported as 0.08%, the “water content (K.F. water %)” value ([1]; 60% RH, 1 week, listed as p-hydroxyphenylacetate) is reported as 0.1% and the “water content (K.F. water %)” value ([1]; 75% RH, 1 week, listed as p-hydroxyphenylacetate) is reported as 0.14%. The “water content (K.F. water %)” value ([1]; 90% RH, 1 week) was 0.17%, the “water content (K.F. water %)” value ([1]; Initial, listed as p-hydroxyphenylacetate) was 0.15% and the hygroscopicity ([1]; relative humidity 95%) was no more than 0.5%. For the same compound, the “Content (HPLC)” value [2] was 98.9%, the colour change [2] was “kept its original white color” and the solubility ([3]; Dist. Water, 25° C. (text), listed as p-Hydroxyphenylacetate) was 3000 µg/mL. It also gave a solubility ([3]; buffer pH 6, ionic strength 0.2, 25 °C, pH 6, aqueous buffer, pH 6, ionic strength 0.2 buffer, 25° C., read-out: solubility) of 2200 µg/mL, a solubility ([3]; buffer pH 7, ionic strength 0.2, 25 °C, pH 7, aqueous buffer, pH 7, ionic strength 0.2 buffer, 25° C., read-out: solubility) of 1100 µg/mL and a solubility ([3]; pH 2, ionic strength 0.2 buffer, 25° C. (text), listed as p-Hydroxyphenylacetate) of 8900 µg/mL. It also gave a solubility ([3]; pH 4, ionic strength 0.2 buffer, 25° C. (text), listed as p-Hydroxyphenylacetate) of 8800 µg/mL, a solubility ([3]; pH 7.4, ionic strength 0.2 buffer, 25° C. (text), listed as p-Hydroxyphenylacetate) of 4000 µg/mL and a solubility ([3]; pH 8, ionic strength 0.2 buffer, 25° C. (text), listed as p-Hydroxyphenylacetate) of 3000 µg/mL. The “decomposition products / content change (HPLC)” value [5] was “neither decomposition products nor content change is found”, the HPLC content ([4]; 1 week) was 99.6% and the HPLC content ([4]; 2 weeks) was 99.5%. It also gave an HPLC content ([4]; 4 weeks) of 99.4% and an HPLC content ([4]; initial) of 99.7%.
